The values below come from ChEMBL document CHEMBL1150206, “Verrucoside, a new cytotoxic pregnane glycoside from a gorgonian Eunicella verrucosa” (J Nat Prod, 1991).

What all share (assay type): functional, cell-based
One experiment has as its system A549. Description: Cytotoxicity against human A549 cells.
The subject of the next experiment is HT-29. In words: Cytotoxicity against human HT-29 cells.
The test system of the next experiment is P388. In words: Cytotoxicity against mouse P388 cells.

In brackets after ≈: the same amount, converted by molar mass.

What is called IC50 is the point on the concentration scale where inhibition reaches its midpoint. Higher therefore signals lower potency.

For the molecule `C=C[C@H]1CC[C@H]2[C@@H]3CC[C@@H]4[C@@H](O[C@@H]5O[C@@H](C)[C@@H](O)[C@@H](OC)[C@@H]5OC(C)=O)[C@@H](O)CC[C@]4(C)[C@H]3CC[C@]12C` [VERRUCOSIDE], the IC50 turned out to be 7.2 µg/mL (≈ 13.8 µM) in the experiment with A549, 6.3 µg/mL (≈ 12.1 µM) in the experiment with HT-29 and 5.9 µg/mL (≈ 11.3 µM) in the experiment on P388.
